Measurements taken from ChEMBL document CHEMBL4316607, “Discovery of NR2B-selective antagonists via scaffold hopping and pharmacokinetic profile optimization” (Bioorg Med Chem Lett, 2019).

Experiments:
[1] = Oral bioavailability in Sprague-Dawley rat at 1 mg/kg dosed via cassette dosing; format: ADME, organism-based; details: in vivo
[2] = […] coefficient, ratio of total drug level in brain to plasma in Sprague-Dawley rat at 0.5 mg/kg, iv dosed via cassette dosing measured after 0.5 hrs; format: ADME, organism-based; details: brain and plasma
[3] = target: Glutamate receptor ionotropic, NMDA 2B (Mus musculus, UniProt P35438+Q01097); assay: Antagonist activity at mouse NR2B receptor expressed in HEK293 cells co-expressing NR1 subunit assessed as reduction in glutamic acid/glycine-induced calcium ion influx by fluorescence based assay; format: cell-based
[4] = target: Glutamate receptor ionotropic, NMDA 2B (Rattus norvegicus, UniProt Q00960); assay: Displacement of [3H]-ifenprodil from NR2B receptor in rat brain cerebral cortex membranes incubated for 120 mins by liquid scintillation counting method; format: cell membranes
[5] = Total clearance in Sprague-Dawley rat at 0.5 mg/kg, iv dosed via cassette dosing; format: ADME, organism-based; details: in vivo
[6] = tested on: Rattus norvegicus; assay: Analgesic activity in rat model of partial sciatic nerve ligation model assessed as increase in pain threshold at 2.5 to 10 mg/kg, po measured after 3 hrs by Von Frey filament test; format: functional; details: read-out: MED
[7] = target: hERG (KCNH2) (Homo sapiens, UniProt Q12809); assay: Inhibition of human ERG expressed in HEK293 cells at 1 uM; format: cell-based; details: HEK293 cells expressing human ERG
Chain of hERG (KCNH2) (Q12809 whole entry): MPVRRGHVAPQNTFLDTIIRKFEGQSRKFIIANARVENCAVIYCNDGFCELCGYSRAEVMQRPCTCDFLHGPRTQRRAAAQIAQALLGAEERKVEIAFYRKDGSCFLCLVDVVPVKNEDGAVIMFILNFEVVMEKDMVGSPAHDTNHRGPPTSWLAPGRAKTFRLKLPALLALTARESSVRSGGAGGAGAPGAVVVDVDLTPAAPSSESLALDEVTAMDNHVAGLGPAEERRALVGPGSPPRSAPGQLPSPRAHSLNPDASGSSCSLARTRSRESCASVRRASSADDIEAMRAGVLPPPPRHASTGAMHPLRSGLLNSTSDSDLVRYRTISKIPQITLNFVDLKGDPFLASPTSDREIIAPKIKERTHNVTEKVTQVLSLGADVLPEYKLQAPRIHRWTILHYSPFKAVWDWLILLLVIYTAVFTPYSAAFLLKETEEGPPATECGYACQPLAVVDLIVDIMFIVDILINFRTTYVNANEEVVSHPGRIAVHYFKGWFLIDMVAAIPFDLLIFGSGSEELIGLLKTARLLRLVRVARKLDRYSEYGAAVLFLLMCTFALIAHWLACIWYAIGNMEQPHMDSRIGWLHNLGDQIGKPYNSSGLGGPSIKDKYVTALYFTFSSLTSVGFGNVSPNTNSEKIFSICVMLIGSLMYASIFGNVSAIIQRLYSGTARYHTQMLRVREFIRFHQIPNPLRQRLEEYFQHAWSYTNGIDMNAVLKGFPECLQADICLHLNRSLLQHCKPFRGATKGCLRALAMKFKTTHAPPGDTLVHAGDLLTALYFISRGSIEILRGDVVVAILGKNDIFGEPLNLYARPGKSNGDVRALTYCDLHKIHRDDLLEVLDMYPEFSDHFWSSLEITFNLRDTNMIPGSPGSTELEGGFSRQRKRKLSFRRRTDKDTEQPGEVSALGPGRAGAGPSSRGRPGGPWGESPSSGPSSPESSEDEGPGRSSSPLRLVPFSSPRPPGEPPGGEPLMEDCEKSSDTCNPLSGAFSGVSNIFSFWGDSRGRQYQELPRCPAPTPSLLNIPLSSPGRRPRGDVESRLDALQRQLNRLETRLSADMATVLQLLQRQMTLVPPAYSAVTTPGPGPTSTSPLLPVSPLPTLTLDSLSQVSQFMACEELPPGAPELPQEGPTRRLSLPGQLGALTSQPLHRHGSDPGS

Chain of Glutamate receptor ionotropic, NMDA 2B (Mus musculus, UniProt P35438+Q01097) (Q01097 whole entry, one chain of several): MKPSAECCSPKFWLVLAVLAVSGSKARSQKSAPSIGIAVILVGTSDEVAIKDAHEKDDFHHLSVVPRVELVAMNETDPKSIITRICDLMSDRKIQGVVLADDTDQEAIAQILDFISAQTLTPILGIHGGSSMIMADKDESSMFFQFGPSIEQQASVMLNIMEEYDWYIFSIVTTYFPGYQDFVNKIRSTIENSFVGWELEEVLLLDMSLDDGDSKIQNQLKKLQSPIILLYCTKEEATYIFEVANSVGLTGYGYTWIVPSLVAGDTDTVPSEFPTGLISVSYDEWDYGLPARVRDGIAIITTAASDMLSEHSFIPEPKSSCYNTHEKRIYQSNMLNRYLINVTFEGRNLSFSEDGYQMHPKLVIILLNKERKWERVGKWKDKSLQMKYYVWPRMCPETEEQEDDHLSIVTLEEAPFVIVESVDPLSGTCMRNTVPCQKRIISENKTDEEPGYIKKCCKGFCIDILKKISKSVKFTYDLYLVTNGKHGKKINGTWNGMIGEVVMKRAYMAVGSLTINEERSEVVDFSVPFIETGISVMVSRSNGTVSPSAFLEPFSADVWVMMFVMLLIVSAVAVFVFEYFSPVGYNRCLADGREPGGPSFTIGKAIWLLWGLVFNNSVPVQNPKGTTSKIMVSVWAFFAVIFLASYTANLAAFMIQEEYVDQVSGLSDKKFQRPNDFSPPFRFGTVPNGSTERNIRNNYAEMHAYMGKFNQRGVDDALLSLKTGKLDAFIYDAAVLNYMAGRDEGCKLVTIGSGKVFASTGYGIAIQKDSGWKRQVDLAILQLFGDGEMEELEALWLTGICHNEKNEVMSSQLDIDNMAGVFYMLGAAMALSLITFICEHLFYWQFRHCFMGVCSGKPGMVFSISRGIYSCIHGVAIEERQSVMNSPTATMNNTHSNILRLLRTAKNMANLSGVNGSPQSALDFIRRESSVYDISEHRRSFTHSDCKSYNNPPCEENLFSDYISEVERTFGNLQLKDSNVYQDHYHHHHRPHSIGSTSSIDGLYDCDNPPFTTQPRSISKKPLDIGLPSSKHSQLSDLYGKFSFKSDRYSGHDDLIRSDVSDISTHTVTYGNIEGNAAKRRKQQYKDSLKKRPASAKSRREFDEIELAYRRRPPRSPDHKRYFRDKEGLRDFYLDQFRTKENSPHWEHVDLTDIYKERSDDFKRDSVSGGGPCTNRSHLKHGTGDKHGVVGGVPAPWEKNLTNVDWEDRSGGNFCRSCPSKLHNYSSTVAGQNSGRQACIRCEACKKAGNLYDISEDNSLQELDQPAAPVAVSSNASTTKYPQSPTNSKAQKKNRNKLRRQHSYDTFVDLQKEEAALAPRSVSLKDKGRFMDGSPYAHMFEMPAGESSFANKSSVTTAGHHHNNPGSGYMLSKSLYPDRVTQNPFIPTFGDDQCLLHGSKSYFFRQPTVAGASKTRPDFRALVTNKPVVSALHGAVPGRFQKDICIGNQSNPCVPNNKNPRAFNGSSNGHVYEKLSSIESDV
Chain of Glutamate receptor ionotropic, NMDA 2B (Rattus norvegicus, UniProt Q00960) (Q00960 whole entry): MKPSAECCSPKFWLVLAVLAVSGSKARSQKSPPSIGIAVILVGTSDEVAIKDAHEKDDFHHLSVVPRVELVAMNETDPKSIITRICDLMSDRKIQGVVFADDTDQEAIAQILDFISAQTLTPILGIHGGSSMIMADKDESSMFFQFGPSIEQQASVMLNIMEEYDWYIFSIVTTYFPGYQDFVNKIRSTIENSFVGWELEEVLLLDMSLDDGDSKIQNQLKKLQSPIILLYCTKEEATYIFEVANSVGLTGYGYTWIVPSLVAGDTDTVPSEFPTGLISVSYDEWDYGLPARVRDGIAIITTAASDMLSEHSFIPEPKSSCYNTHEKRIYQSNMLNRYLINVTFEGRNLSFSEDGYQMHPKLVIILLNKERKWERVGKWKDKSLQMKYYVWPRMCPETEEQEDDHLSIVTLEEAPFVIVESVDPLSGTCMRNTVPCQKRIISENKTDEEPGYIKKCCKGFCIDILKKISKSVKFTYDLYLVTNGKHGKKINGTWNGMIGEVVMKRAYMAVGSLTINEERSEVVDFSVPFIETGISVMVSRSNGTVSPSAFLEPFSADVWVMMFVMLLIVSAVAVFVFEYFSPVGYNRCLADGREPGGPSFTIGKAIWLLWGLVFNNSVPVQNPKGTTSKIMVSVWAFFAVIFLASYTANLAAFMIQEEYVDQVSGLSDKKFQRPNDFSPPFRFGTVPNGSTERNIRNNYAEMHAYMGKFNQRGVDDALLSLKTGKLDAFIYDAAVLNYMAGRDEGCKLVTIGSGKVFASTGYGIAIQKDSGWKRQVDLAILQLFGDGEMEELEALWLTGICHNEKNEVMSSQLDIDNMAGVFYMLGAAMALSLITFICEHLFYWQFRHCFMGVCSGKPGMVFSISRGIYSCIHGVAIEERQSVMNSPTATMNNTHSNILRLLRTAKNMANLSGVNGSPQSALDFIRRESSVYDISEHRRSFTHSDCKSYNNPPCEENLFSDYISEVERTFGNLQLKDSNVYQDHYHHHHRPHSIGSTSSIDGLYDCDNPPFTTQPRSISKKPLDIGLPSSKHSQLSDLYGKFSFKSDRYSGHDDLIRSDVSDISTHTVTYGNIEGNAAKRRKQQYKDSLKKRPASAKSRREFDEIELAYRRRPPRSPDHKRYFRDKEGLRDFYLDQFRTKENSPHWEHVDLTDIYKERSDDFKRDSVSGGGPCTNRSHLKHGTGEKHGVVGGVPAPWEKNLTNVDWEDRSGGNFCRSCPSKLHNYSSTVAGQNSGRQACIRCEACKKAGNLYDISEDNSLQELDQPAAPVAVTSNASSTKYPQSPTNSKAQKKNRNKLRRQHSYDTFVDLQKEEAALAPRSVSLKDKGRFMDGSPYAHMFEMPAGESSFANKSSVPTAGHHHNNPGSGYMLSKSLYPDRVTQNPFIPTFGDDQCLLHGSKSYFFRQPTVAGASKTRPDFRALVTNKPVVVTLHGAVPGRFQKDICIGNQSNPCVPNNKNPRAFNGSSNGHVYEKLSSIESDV

Structure (SMILES) | bioavailability [1] | Kp at 0.5 h [2] | IC50 [3] | IC50 [4] | clearance [5] | minimal effective dose [6] | inhibition at 1 µM [7]
O=C(c1cc(-c2ccc(=O)[nH]c2)on1)N1CCC(Cc2ccc(F)cc2)CC1 | 18.4% | 0.5 | 39.8 nM | 50.1 nM | 19.7 mL/min/kg |  | 
C[C@H]1CN(C(=O)C(=O)Nc2ccc3[nH]c(=O)oc3c2)CCN1c1ccc(Cl)cc1 |  |  | 100 nM | 631 nM |  |  | 
O=C(c1cc(-c2ccc(=O)[nH]c2)on1)N1CCN(Cc2ccc(Cl)cc2)CC1 |  |  |  | > 1000 nM |  |  | 
C[C@@H]1CN(C(=O)C(=O)Nc2ccc3[nH]c(=O)oc3c2)CCN1c1ccc(Cl)cc1 | 52.6% | 1.85 | 6.31 nM | 63.1 nM | 15.6 mL/min/kg | 10 mg/kg | 25%
C[C@@H]1CN(c2ccc(F)c(F)c2)CCN1C(=O)C(=O)Nc1ccc2[nH]c(=O)oc2c1 | 118% | 0.67 | 6.31 nM | 50.1 nM | 5.6 mL/min/kg |  | 
O=C(Nc1ccc2[nH]c(=O)oc2c1)C(=O)N1CCN(c2ccc(C(F)(F)F)c(F)c2)CC1 | 8.7% | 0.65 | 1 nM | 15.8 nM | 5.6 mL/min/kg |  | 
O=C(Nc1ccc2[nH]c(=O)oc2c1)C(=O)N1CCN(c2cc(F)cc(F)c2)CC1 |  |  | 100 nM | 158 nM |  |  | 
O=C(c1cc(-c2ccc(=O)[nH]c2)on1)N1CCC(Cc2ccccc2)CC1 | 18.4% | 0.37 | 63.1 nM | 63.1 nM | 19.3 mL/min/kg |  | 
C[C@@H]1CN(C(=O)C(=O)Nc2ccc3[nH]c(=O)oc3c2)CCN1c1ccc(Cl)c(F)c1 | 32% | 1.19 | 3.16 nM | 50.1 nM | 6 mL/min/kg | 2.5 mg/kg | 10%
O=C(c1cc(-c2cc[nH]n2)on1)N1CCC(Cc2ccccc2)CC1 | 0.2% | 3.89 | 50.1 nM | 79.4 nM | 71.6 mL/min/kg |  | 
C[C@@H]1CN(c2ccc(Cl)c(F)c2)CCN1C(=O)C(=O)Nc1ccc2[nH]c(=O)oc2c1 | 30.4% | 0.99 | 2 nM | 12.6 nM | 1.37 mL/min/kg | 5 mg/kg | 29%
O=C(c1cc(-c2ccc(=O)[nH]c2)on1)N1CCC(Cc2ccc(Cl)cc2)CC1 | 9.3% | 0.38 | 10 nM | 25.1 nM | 5.4 mL/min/kg |  | 
C[C@@H]1CN(c2ccc(Cl)cc2)CCN1C(=O)C(=O)Nc1ccc2[nH]c(=O)oc2c1 | 130% | 0.95 | 6.31 nM | 31.6 nM | 5.4 mL/min/kg | 10 mg/kg | 36%
C[C@@H]1CN(C(=O)C(=O)Nc2ccc3[nH]c(=O)oc3c2)CCN1c1ccc(F)c(F)c1 | 25.3% | 1.89 | 10 nM | 63.1 nM | 15.9 mL/min/kg |  | 
O=C(c1cc(-c2cc[nH]n2)on1)N1CCC(Cc2ccc(F)cc2)CC1 |  |  | 63.1 nM | 79.4 nM |  |  | 
C[C@H]1CN(c2ccc(Cl)cc2)CCN1C(=O)C(=O)Nc1ccc2[nH]c(=O)oc2c1 |  |  |  | > 1000 nM |  |  | 
O=C(c1cc(-c2cc[nH]n2)on1)N1CCC(Cc2ccc(Cl)cc2)CC1 | 0.6% | 3.27 | 39.8 nM | 63.1 nM | 29.2 mL/min/kg |  | 
O=C(c1cc(-c2ccc(=O)[nH]c2)on1)N1CCN(c2ccc(Cl)cc2)CC1 |  |  |  | > 1000 nM |  |  | 
COc1ccc(N2CCN(C(=O)C(=O)Nc3ccc4[nH]c(=O)oc4c3)CC2)cc1F | 0.6% | 3.17 | 15.8 nM | 15.8 nM | 101 mL/min/kg |  | 
O[C@]1(Cc2cc(-c3cn[nH]c3)on2)CC[C@@H](Cc2ccc(C(F)(F)F)cc2)CC1 | 67.5% | 2.66 | 12.6 nM | 100 nM | 4 mL/min/kg |  | 

The next lines start with results.

bioavailability [1] | Kp at 0.5 h [2] | IC50 [3] | IC50 [4] | clearance [5] | Structure (SMILES) | minimal effective dose [6] | inhibition at 1 µM [7]
 |  |  | > 1000 nM |  | O=C(Nc1ccc2[nH]c(=O)oc2c1)C(=O)N1CCN(c2ccccc2)CC1 |  | 
28.2% | 0.79 |  | 12.6 nM | 5.6 mL/min/kg | O=C(Nc1ccc2[nH]c(=O)oc2c1)C(=O)N1CCN(c2ccc(Cl)c(F)c2)CC1 |  | 
 |  | 200 nM | 251 nM |  | COc1ccc(N2CCN(C(=O)C(=O)Nc3ccc4[nH]c(=O)oc4c3)CC2)cc1 |  | 
 |  |  | > 1000 nM |  | O=C1Cc2cc(NC(=O)C(=O)N3CCN(c4ccc(Cl)cc4)CC3)ccc2N1 |  | 
13% | 0.82 | 10 nM | 20 nM | 4 mL/min/kg | O=C(Nc1ccc2[nH]c(=O)oc2c1)C(=O)N1CCN(c2ccc(F)c(F)c2)CC1 |  | 
 |  |  | > 1000 nM |  | O=C1CCc2cc(NC(=O)C(=O)N3CCN(c4ccc(Cl)cc4)CC3)ccc2N1 |  | 
24.6% | 1.24 | 10 nM | 31.6 nM | 18.3 mL/min/kg | O=C(Nc1ccc2[nH]c(=O)oc2c1)C(=O)N1CCN(c2ccc(F)c(Cl)c2)CC1 |  | 
39.3% |  | 126 nM | 126 nM | 11.1 mL/min/kg | O=C(Nc1ccc2[nH]c(=O)oc2c1)C(=O)N1CCN(c2ccc(F)cc2)CC1 |  | 
17.8% | 0.53 |  | 15.8 nM | 7.2 mL/min/kg | O=C(Nc1ccc2[nH]c(=O)oc2c1)C(=O)N1CCN(c2ccc(Cl)cc2)CC1 |  | 
24.8% | 2.99 | 6.31 nM | 25.1 nM | 15.1 mL/min/kg | O=C(Nc1ccc2[nH]c(=O)oc2c1)C(=O)N1CCN(c2ccc(C(F)(F)F)cc2)CC1 |  | 
7.4% | 0.41 | 63.1 nM | 501 nM | 6.8 mL/min/kg | O=C(Nc1ccc2[nH]c(=O)oc2c1)C(=O)N1CCN(Cc2ccc(Cl)cc2)CC1 |  | 
